Source: publication PMC4965013, “Open Source Drug Discovery with the Malaria Box Compound Collection for Neglected Diseases and Beyond” (PLoS Pathogens, 2016)

What was measured:
P. falciparum = experiment: EC50 listed in S2 Table Metabolomics (used to set the concentration tested); assay type: cell-based; conditions: Plasmodium falciparum; EC50 used for Factor_XEC50 in metabolomics; read-out: EC50_nM
[1] = tested on: P. falciparum 3D7 trophozoites; experiment: Metabolomic fingerprint profiling LC-MS; assay type: cell-based, Plasmodium falciparum; design: UDP-D-glucose / ADP-D-glucose: unit not given here
[2] = metabolite level change after treatment

Work on `CCOC(=O)c1c(NC(=O)c2ccccc2)sc2c(O)c(CN(CC)CC)ccc12` [MMV665831] yielded an EC50 (P. falciparum) of 205 nM, an Acetyllysine ([1]; S2 Table Metabolomics, metabolite Acetyllysine) of -3.559 and a N-acetyl-L-ornithine ([1]; S2 Table Metabolomics, metabolite N-acetyl-L-ornithine) of -2.775. For the same molecule, the N-carbamoyl-L-aspartate ([1]; S2 Table Metabolomics, metabolite N-carbamoyl-L-aspartate) was -1.992, the NADPH ([1]; S2 Table Metabolomics, metabolite NADPH) was 1.923 and the dAMP ([1]; S2 Table Metabolomics, metabolite dAMP) was -1.503. It also gave a dCMP ([1]; S2 Table Metabolomics, metabolite dCMP) of -0.7769, a dTDP ([1]; S2 Table Metabolomics, metabolite dTDP) of -0.143 and a dTMP ([1]; S2 Table Metabolomics, metabolite dTMP) of 0.09088. It also gave a dTTP ([1]; S2 Table Metabolomics, metabolite dTTP) of -0.5361, a dihydroorotate ([1]; S2 Table Metabolomics, metabolite dihydroorotate) of -1.759 and an orotate ([1]; S2 Table Metabolomics, metabolite orotate) of -1.534. For the same molecule, the DLH ([1]; S2 Table Metabolomics, peptide DLH) was -5.287, the DLS/SDL/SID ([1]; S2 Table Metabolomics, peptide DLS/SDL/SID) was -4.31 and the PD ([1]; S2 Table Metabolomics, peptide PD) was -4.8541. It also gave a PEE ([1]; S2 Table Metabolomics, peptide PEE) of -3.834, a PVNF ([1]; S2 Table Metabolomics, peptide PVNF) of -4.964 and a 3-phosphoglycerate ([1]; metabolite 3-phosphoglycerate, S2 Table Metabolomics) of -0.2896. The ADP-D-glucose ([1]; metabolite ADP-D-glucose, S2 Table Metabolomics) was -0.2463, the ATP ([1]; metabolite ATP, S2 Table Metabolomics) was 0.0783 and the CDP ([1]; metabolite CDP, S2 Table Metabolomics, change in metabolite level after compound treatment) was 0.9119. For the same molecule, the D-sedoheptulose-1/7-phosphate ([1]; metabolite D-sedoheptulose-1/7-phosphate, S2 Table Metabolomics, change in metabolite level after compound treatment) was 0.4987, the FAD ([1]; metabolite FAD, S2 Table Metabolomics) was 0.1414 and the GMP ([1]; metabolite GMP, S2 Table Metabolomics, change in metabolite level after compound treatment) was -0.668. The “NAD+” value ([1]; metabolite NAD+, S2 Table Metabolomics) was -0.0766, the “NADP+” value ([1]; metabolite NADP+, S2 Table Metabolomics) was 0.2915 and the “Octoluse Bisphosphate” value ([1]; metabolite Octoluse Bisphosphate, S2 Table Metabolomics, change in metabolite level after compound treatment) was -0.5945. It also gave a Pyroglutamic acid ([1]; metabolite Pyroglutamic acid, S2 Table Metabolomics) of 0.1607, a UDP-D-glucose ([1]; metabolite UDP-D-glucose, S2 Table Metabolomics) of 0.05295 and a UDP-D-glucuronate ([1]; metabolite UDP-D-glucuronate, S2 Table Metabolomics) of 0.02399. The UDP-N-acetyl-glucosamine ([1]; metabolite UDP-N-acetyl-glucosamine, S2 Table Metabolomics) was -0.03093, the UDP ([1]; metabolite UDP, S2 Table Metabolomics, change in metabolite level after compound treatment) was 0.469 and the UMP ([1]; metabolite UMP, S2 Table Metabolomics, change in metabolite level after compound treatment) was -0.6472. It also gave a UTP ([1]; metabolite UTP, S2 Table Metabolomics, change in metabolite level after compound treatment) of 0.04522, an a-ketoglutarate ([1]; metabolite a-ketoglutarate, S2 Table Metabolomics) of -1.141 and a citrate/isocitrate ([1]; metabolite citrate/isocitrate, S2 Table Metabolomics, change in metabolite level after compound treatment) of 0.03995. It also gave a cytidine ([1]; metabolite cytidine, S2 Table Metabolomics) of 0.9734, a dATP ([1]; metabolite dATP, S2 Table Metabolomics) of -0.7894 and a dGMP/AMP ([1]; metabolite dGMP/AMP, S2 Table Metabolomics, change in metabolite level after compound treatment) of -0.1413. It also gave a fumarate ([1]; metabolite fumarate, S2 Table Metabolomics, change in metabolite level after compound treatment) of -1.268, a glucose-1/6-phosphate ([1]; metabolite glucose-1/6-phosphate, S2 Table Metabolomics, change in metabolite level after compound treatment) of -0.4706 and a glycerate ([1]; metabolite glycerate, S2 Table Metabolomics, change in metabolite level after compound treatment) of -0.5026. The guanine ([1]; metabolite guanine, S2 Table Metabolomics, change in metabolite level after compound treatment) was -0.4153, the guanosine ([1]; metabolite guanosine, S2 Table Metabolomics, change in metabolite level after compound treatment) was -0.8776 and the hypoxanthine ([1]; metabolite hypoxanthine, S2 Table Metabolomics) was -0.04834. It also gave an indole ([1]; metabolite indole, S2 Table Metabolomics) of -0.03305, an inosine ([1]; metabolite inosine, S2 Table Metabolomics, change in metabolite level after compound treatment) of -0.4277 and a 2_3-Diphosphoglyceric acid [1, 2] of 0.2082. The 4-phosphopantothenate [1, 2] was -0.594, the 6-phospho-D-gluconate [1, 2] was -0.9918 and the FMN [1, 2] was 0.1595. It also gave an IMP [1, 2] of -0.2597, a Pyrophosphate [1, 2] of -0.0001746 and a Sedoheptoluse bisphosphate [1, 2] of -0.3963. It also gave a cyclic-AMP [1, 2] of -0.8626, a glutathione disulfide [1, 2] of -0.3472 and a lactate [1, 2] of -0.3473. The myo-inositol [1, 2] was -0.3976, the nicotinate ([1]; metabolite nicotinate, S2 Table Metabolomics) was -0.05954 and the ornithine ([1]; metabolite ornithine, S2 Table Metabolomics) was -0.2486. The phosphoenolpyruvate ([1]; metabolite phosphoenolpyruvate, S2 Table Metabolomics) was -0.1118, the pyruvate ([1]; metabolite pyruvate, S2 Table Metabolomics, change in metabolite level after compound treatment) was -0.4191 and the ribose-phosphate ([1]; metabolite ribose-phosphate, S2 Table Metabolomics) was -0.6703. It also gave a sarcosine/alanine ([1]; metabolite sarcosine/alanine, S2 Table Metabolomics, change in metabolite level after compound treatment) of -1.233, a sn-glycerol-3-phosphate ([1]; metabolite sn-glycerol-3-phosphate, S2 Table Metabolomics) of -0.08824 and a succinate/methylmalonic acid ([1]; metabolite succinate/methylmalonic acid, S2 Table Metabolomics, change in metabolite level after compound treatment) of -0.8852. For the same molecule, the uridine ([1]; metabolite uridine, S2 Table Metabolomics, change in metabolite level after compound treatment) was -0.3477 and the xanthosine ([1]; metabolite xanthosine, S2 Table Metabolomics, change in metabolite level after compound treatment) was -1.069.
